Results: US11370798B2 (Vertex Pharmaceuticals Incorporated, priority 2012, dated 2022)

Tested on: HCT116 colorectal cancer cells
Assay: Cisplatin sensitization assay (96 h cell viability MTS);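 further: Test-compound concentration that lowers the Cisplatin IC50 by a set fold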
Type: cell-based
Conditions: compound and Cisplatin added simultaneously, Cisplatin sensitization value
Procedure: Compounds can be screened for their ability to sensitize HCT116 colorectal cancer cells to Cisplatin using a 96 h cell viability (MTS) assay. […] Compounds and Cisplatin are then both added simultaneously to the cell media in 2-fold serial dilutions from a top final concentration of 10 μM as a full matrix of concentrations in a final cell volume of 200 μl, and the cells are then incubated at 37° C. in 5% CO2. After 96 h, 40 μl of MTS reagent (Promega G358a) is added to each well and the cells are incubated for 1 h at 37° C. in 5% CO2.
Compounds with a Cisplatin sensitization value of <0.02 μM are marked with “+++.” Compounds with a Cisplatin sensitization value>0.02 μM but <0.2 μM are marked with “++.” Compounds with a Cisplatin sensitization value>0.2 μM but <5 μM are marked with “+.”

| SMILES | Cisplatin Sensitization Assay |
| --- | --- |
| Nc1nn2cc(F)cnc2c1C(=O)Nc1cncc(F)c1N1CCN(C(=O)C2CC2)CC1 [I-N-276, 2-amino-N-(4-(4-(cyclopropanecarbonyl)piperazin-1-yl)-5-fluoropyridin-3-yl)-6-fluoropyrazolo[1,5-a]pyrimidine-3-carboxamide] | +++ (Cisplatin sensitization value of <0.02 μM) |
| Nc1nn2cc(Cl)cnc2c1C(=O)Nc1cnccc1OCCCO [I-O-53, 2-amino-6-chloro-N-(4-(3-hydroxypropoxy)pyridin-3-yl)pyrazolo[1,5-a]pyrimidine-3-carboxamide] | +++ (Cisplatin sensitization value of <0.02 μM) |
| N#CCc1cnc2c(C(=O)Nc3cnccc3OCC(F)(F)F)c(N)nn2c1 [I-O-34, 2-amino-6-(cyanomethyl)-N-(4-(2,2,2-trifluoroethoxy)pyridin-3-yl)pyrazolo[1,5-a]pyrimidine-3-carboxamide] | ++ (Cisplatin sensitization value>0.02 μM but <0.2 μM) |
| Nc1nn2cc(F)cnc2c1C(=O)Nc1cnccc1N1CCN2C(=O)CC[C@@H]2C1 [I-N-258, (R)-2-amino-6-fluoro-N-(4-(6-oxohexahydropyrrolo[1,2-a]pyrazin-2(1H)-yl)pyridin-3-yl)pyrazolo[1,5-a]pyrimidine-3-carboxamide] | ++ (Cisplatin sensitization value>0.02 μM but <0.2 μM) |
| COCCOc1ccncc1NC(=O)c1c(N)nn2cc(CC#N)cnc12 [I-O-29, 2-amino-6-(cyanomethyl)-N-(4-(2-methoxyethoxy)pyridin-3-yl)pyrazolo[1,5-a]pyrimidine-3-carboxamide] | +++ (Cisplatin sensitization value of <0.02 μM) |
| Nc1nn2cc(F)cnc2c1C(=O)Nc1cncc(F)c1N1CCN2C(=O)CCC[C@H]2C1 [I-N-279, (S)-2-amino-6-fluoro-N-(5-fluoro-4-(6-oxohexahydro-1H-pyrido[1,2-a]pyrazin-2(6H)-yl)pyridin-3-yl)pyrazolo[1,5-a]pyrimidine-3-carboxamide] | +++ (Cisplatin sensitization value of <0.02 μM) |
| Nc1nn2cc(F)cnc2c1C(=O)Nc1cnccc1C1CC1 [I-C-42, 2-amino-N-(4-cyclopropylpyridin-3-yl)-6-fluoropyrazolo[1,5-a]pyrimidine-3-carboxamide] | ++ (Cisplatin sensitization value>0.02 μM but <0.2 μM) |
| CN1CCOC2(CCN(c3c(F)cncc3NC(=O)c3c(N)nn4cc(F)cnc34)CC2)C1 [I-N-272, 2-amino-6-fluoro-N-(5-fluoro-4-(4-methyl-1-oxa-4,9-diazaspiro[5.5]undecan-9-yl)pyridin-3-yl)pyrazolo[1,5-a]pyrimidine-3-carboxamide] | +++ (Cisplatin sensitization value of <0.02 μM) |
| Nc1nn2cc(F)cnc2c1C(=O)Nc1cncc(F)c1C1=CCN(C2COC2)CC1 [I-C-12, 2-amino-6-fluoro-N-(5-fluoro-1′-(oxetan-3-yl)-1′,2′,3′,6′-tetrahydro-[4,4′-bipyridin]-3-yl)pyrazolo[1,5-a]pyrimidine-3-carboxamide] | +++ (Cisplatin sensitization value of <0.02 μM) |
| Nc1nn2cc(F)cnc2c1C(=O)Nc1cnccc1N1CCN2C(=O)COCC2C1 (stereo not drawn) [I-N-136, 2-amino-6-fluoro-N-(4-(4-oxohexahydropyrazino[2,1-c][1,4]oxazin-8(1H)-yl)pyridin-3-yl)pyrazolo[1,5-a]pyrimidine-3-carboxamide] | ++ (Cisplatin sensitization value>0.02 μM but <0.2 μM) |
| Nc1nn2cc(F)cnc2c1C(=O)Nc1cncc(F)c1N1CCC(C(=O)N2CCNC3(CC3)C2)CC1 [I-G-28, N-(4-(4-(4,7-diazaspiro[2.5]octane-7-carbonyl)piperidin-1-yl)-5-fluoropyridin-3-yl)-2-amino-6-fluoropyrazolo[1,5-a]pyrimidine-3-carboxamide] | +++ (Cisplatin sensitization value of <0.02 μM) |
| Nc1nn2cc(F)cnc2c1C(=O)Nc1cncc(C2CC2)c1N1CCN([C@@H]2CCOC2)CC1 [I-N-119, (R)-2-amino-N-(5-cyclopropyl-4-(4-(tetrahydrofuran-3-yl)piperazin-1-yl)pyridin-3-yl)-6-fluoropyrazolo[1,5-a]pyrimidine-3-carboxamide] | ++ (Cisplatin sensitization value>0.02 μM but <0.2 μM) |
| Cn1c(-c2ccncc2NC(=O)c2c(N)nn3cc(F)cnc23)cccc1=O [I-C-58, 2-amino-6-fluoro-N-(1-methyl-6-oxo-1,6-dihydro-[2,4′-bipyridin]-3′-yl)pyrazolo[1,5-a]pyrimidine-3-carboxamide] | +++ (Cisplatin sensitization value of <0.02 μM) |
| COC1(CN(C)C)CCN(c2ccncc2NC(=O)c2c(N)nn3cc(Cl)cnc23)CC1 [I-N-46, 2-amino-6-chloro-N-(4-(4-((dimethylamino)methyl)-4-methoxypiperidin-1-yl)pyridin-3-yl)pyrazolo[1,5-a]pyrimidine-3-carboxamide] | +++ (Cisplatin sensitization value of <0.02 μM) |
| CC1(C)CCCN1c1ccncc1NC(=O)c1c(N)nn2cc(F)cnc12 [I-N-220, 2-amino-N-(4-(2,2-dimethylpyrrolidin-1-yl)pyridin-3-yl)-6-fluoropyrazolo[1,5-a]pyrimidine-3-carboxamide] | ++ (Cisplatin sensitization value>0.02 μM but <0.2 μM) |
| Nc1nn2cc(F)cnc2c1C(=O)Nc1cncc(F)c1N1CCC(S(=O)(=O)N2CCOCC2)CC1 [I-N-155, 2-amino-6-fluoro-N-(5-fluoro-4-(4-(morpholinosulfonyl)piperidin-1-yl)pyridin-3-yl)pyrazolo[1,5-a]pyrimidine-3-carboxamide] | +++ (Cisplatin sensitization value of <0.02 μM) |
| Nc1nn2cc(F)cnc2c1C(=O)Nc1cncc(F)c1N1CCN(C(=O)C2CNC2)CC1 [I-N-168, 2-amino-N-(4-(4-(azetidine-3-carbonyl)piperazin-1-yl)-5-fluoropyridin-3-yl)-6-fluoropyrazolo[1,5-a]pyrimidine-3-carboxamide] | + (Cisplatin sensitization value>0.2 μM but <5 μM) |
| Nc1nn2cc(F)cnc2c1C(=O)Nc1cncc(F)c1N1CCN(C(=O)C23CCN(CC2)CC3)CC1 [I-N-134, 2-amino-6-fluoro-N-(5-fluoro-4-(4-(quinuclidine-4-carbonyl)piperazin-1-yl)pyridin-3-yl)pyrazolo[1,5-a]pyrimidine-3-carboxamide] | + (Cisplatin sensitization value>0.2 μM but <5 μM) |
| CN1CCN(C(=O)N2CCC(c3ccncc3NC(=O)c3c(N)nn4cc(F)cnc34)CC2)CC1 [I-C-17, 2-amino-6-fluoro-N-(4-(1-(4-methylpiperazine-1-carbonyl)piperidin-4-yl)pyridin-3-yl)pyrazolo[1,5-a]pyrimidine-3-carboxamide] | ++ (Cisplatin sensitization value>0.02 μM but <0.2 μM) |
| Nc1nn2cc(Cl)cnc2c1C(=O)Nc1cnccc1N1CCN(C2COC2)CC1 [I-N-58, 2-amino-6-chloro-N-(4-(4-(oxetan-3-yl)piperazin-1-yl)pyridin-3-yl)pyrazolo[1,5-a]pyrimidine-3-carboxamide] | ++ (Cisplatin sensitization value>0.02 μM but <0.2 μM) |
| CN1CCC(N(C)S(=O)(=O)C2CCN(c3c(F)cncc3NC(=O)c3c(N)nn4cc(F)cnc34)CC2)CC1 [I-N-148, 2-amino-6-fluoro-N-(5-fluoro-4-(4-(N-methyl-N-(1-methylpiperidin-4-yl)sulfamoyl)piperidin-1-yl)pyridin-3-yl)pyrazolo[1,5-a]pyrimidine-3-carboxamide] | +++ (Cisplatin sensitization value of <0.02 μM) |
| CN1CC2CN(c3c(Cl)cncc3NC(=O)c3c(N)nn4cc(F)cnc34)CC2C1 (stereo not drawn) [I-N-286, 2-amino-N-(5-chloro-4-(5-methylhexahydropyrrolo[3,4-c]pyrrol-2(1H)-yl)pyridin-3-yl)-6-fluoropyrazolo[1,5-a]pyrimidine-3-carboxamide] | ++ (Cisplatin sensitization value>0.02 μM but <0.2 μM) |
| N#CCc1cnc2c(C(=O)Nc3cnccc3OC3COC3)c(N)nn2c1 [I-O-38, 2-amino-6-(cyanomethyl)-N-(4-(oxetan-3-yloxy)pyridin-3-yl)pyrazolo[1,5-a]pyrimidine-3-carboxamide] | +++ (Cisplatin sensitization value of <0.02 μM) |
| N#CCc1cnc2c(C(=O)Nc3cnccc3OCCN)c(N)nn2c1 [I-O-83, 2-amino-N-(4-(2-aminoethoxy)pyridin-3-yl)-6-(cyanomethyl)pyrazolo[1,5-a]pyrimidine-3-carboxamide] | +++ (Cisplatin sensitization value of <0.02 μM) |
| CO[C@H]1CCN(C(=O)C2CCN(c3c(F)cncc3NC(=O)c3c(N)nn4cc(F)cnc34)CC2)C1 [I-G-99, (S)-2-amino-6-fluoro-N-(5-fluoro-4-(4-(3-methoxypyrrolidine-1-carbonyl)piperidin-1-yl)pyridin-3-yl)pyrazolo[1,5-a]pyrimidine-3-carboxamide] | +++ (Cisplatin sensitization value of <0.02 μM) |
| Nc1nn2cc(F)cnc2c1C(=O)Nc1cncc(F)c1N1CCC(C(=O)N2CC3(COC3)C2)CC1 [I-G-14, N-(4-(4-(2-oxa-6-azaspiro[3.3]heptane-6-carbonyl)piperidin-1-yl)-5-fluoropyridin-3-yl)-2-amino-6-fluoropyrazolo[1,5-a]pyrimidine-3-carboxamide] | +++ (Cisplatin sensitization value of <0.02 μM) |
| CN1CCC(Oc2c(F)cncc2NC(=O)c2c(N)nn3cc(F)cnc23)CC1 [I-O-89, 2-amino-6-fluoro-N-(5-fluoro-4-((1-methylpiperidin-4-yl)oxy)pyridin-3-yl)pyrazolo[1,5-a]pyrimidine-3-carboxamide] | ++ (Cisplatin sensitization value>0.02 μM but <0.2 μM) |
